The values below come from publication PMC12386745, “Benzofuran Derivatives with Antimicrobial and Anti-Inflammatory Activities from Penicillium crustosum SCNU-F0046” (International Journal of Molecular Sciences, 2025).

Converted amounts (≈) assume the structure as drawn. Like-named read-outs stand apart in the source and are kept apart here.

For orientation: CC50 means the concentration at which the toxic effect on the cells reaches its halfway point. The IC50 is the concentration needed to halve the response being measured.

Data set [1] can be described thus: Cytotoxicity, MTT assay. The class given is cell-based. The note with it: mouse. The protocol:
(§1) The anti-inflammatory activities of compounds 1–4 were evaluated by assessing the inhibition of nitric oxide (NO) production in lipopolysaccharide (LPS)-stimulated murine macrophage RAW 264.7 cells. […] In addition, we also tested the cytotoxicity of compounds 1–4, and cytotoxicity was assessed independently of LPS stimulation.
Cell viability was evaluated using MTT (3-(4,5-Dimethylthiazol-2-yl)-2,5-diphenyltetrazolium bromide) assay. RAW 264.7 cells were seeded in 96-well plates at a density of 5 × 10^3 cells per well and incubated overnight. Cells were incubated with tested compounds (DMSO as solvent) at 37 °C for 72 h. Subsequently, 50 μL of MTT/medium solution (0.5 mg/mL) was added to each well, and the cells were incubated for 1 h at 37 °C. After removing the MTT/medium, 100 μL of DMSO was added to each well. The plate was shaken to dissolve the precipitate, and activity was measured at 540 nm using a microplate reader. Cell viability was calculated using the following formula: Cell viability/% = (Absorbance of treated cells − Absorbance of blank control)/(Absorbance of negative control − Absorbance of blank control) × 100. The half-maximal inhibitory concentration (IC50) was calculated with Origin 8 Pro.

Data set [2] has as its system Colletotrichum musae. Briefly: Antimicrobial MIC, 96-well broth dilution. The class given is cell-based. The note with it: tested range 0.78–100 μg/mL, 48 h at 27 °C, means of three parallel experiments; for MIC: 48 h, read-out: minimum inhibitory concentration (MIC). An excerpt:
(§2) In contrast, for fungal inhibition activity, aza-benzofuran compounds show lower activity than oxa-benzofuran compounds. […] In terms of antifungal activity, when compound 5 and 6 form hydroxyl groups at position C-6, their polarity […], making them more susceptible to penetrating fungal cell membranes through hydrophobic mechanisms.
(§3) The minimum inhibitory concentration (MIC) values of antimicrobial activity of compounds 1–4 against three different plant pathogenic […], including Penicillium italicum, Fusarium oxysporum and Colletotrichum musae, and three human pathogenic bacteria, including Salmonella typhimurium (ATCC 6539), Escherichia coli (ATCC 25922) and Staphylococcus aureus (ATCC 12598), were determined via serial dilution technique employing 96-well microtiter plates. In brief, the bacterial cell suspension was adjusted to an inoculum density of 5 × 10^5 cfu/mL by comparison with a MacFarland standard before use. The fungal thallus concentration was adjusted to 1 × 10^6 cfu/mL. The tested compounds in dimethyl sulfoxide (DMSO) were added to PDB/MH broth medium to obtain a series of final concentrations of 100, 50, 25, 12.5, 6.25, 3.13, 1.57, 0.78 μg/mL. DMSO and carbendazim/ciprofloxacin served as negative and positive controls, respectively. The antifungal plates were incubated for 48 h at 27 °C, and the antibacterial plates were incubated for 24 h at 27 °C. Ten microliters of resazurin dissolved in DMSO at 100 μg/mL was added to each well of the microplate, followed by incubation at 27 °C for 3 h. We determined the MIC values by observing color changes using the visual endpoint method. For each parallel experiment, three replicates were measured.
(In broth dilution the organism is exposed to a series of concentrations in liquid medium.)

For data set [3], the system named is Fusarium oxysporum. Briefly: Antimicrobial MIC, 96-well broth dilution. The class given is cell-based. The note with it: tested range 0.78–100 μg/mL, 48 h at 27 °C, means of three parallel experiments, read-out: minimum inhibitory concentration (MIC).
Description: as §2, §3

The test system of data set [4] is Penicillium italicum. Briefly: Antimicrobial MIC, 96-well broth dilution. The note with it: tested range 0.78–100 μg/mL, 48 h at 27 °C, means of three parallel experiments, read-out: minimum inhibitory concentration (MIC). It counts as cell-based.
Description: as §2, §3

Data set [5] relates to Escherichia coli (ATCC 25922). Briefly: Antimicrobial MIC, 96-well broth dilution. The note with it: ATCC25922, tested range 0.78–100 μg/mL, 24 h at 27 °C, means of three parallel experiments, read-out: minimum inhibitory concentration (MIC). It counts as cell-based.
Description: as §2, §3

For data set [6], the system named is Salmonella typhimurium (ATCC 6539). Briefly: Antimicrobial MIC, 96-well broth dilution. The note with it: Salmonella enterica, 24 h, read-out: minimum inhibitory concentration (MIC). The class given is cell-based.
Description: as §2, §3

The subject of data set [7] is Staphylococcus aureus (ATCC 12598). Briefly: Antimicrobial MIC, 96-well broth dilution. The note with it: read-out: minimum inhibitory concentration (MIC). It counts as cell-based.
Description: as §2, §3

In data set [8] the test system is LPS-stimulated RAW 264.7 cells. Kind of data set: Inhibition of NO production (Griess reagent) in LPS-stimulated macrophages. It counts as cell-based, mouse. The note with it: 4 h pretreatment, 1 μg/mL LPS for 24 h, mean ± SD, three independent experiments. As for the experimental part:
as §1
The nitrite concentration in the culture medium was measured using the Griess reagent, as previously reported, with slight modifications. The mouse macrophage cell line RAW 264.7 cells were purchased from the Shanghai Institutes for Biological Sciences and cultured in DMEM (high-glucose) medium supplemented with 10% (v/v) fetal bovine serum, 100 μg·mL^−1 penicillin and streptomycin, and 10 mM HEPES at 37 °C in a 5% CO2 atmosphere. Cells were pretreated with different samples dissolved in serum-free culture medium containing 0.5% DMSO (10, 5, 2.5, 1.25, and 0.625 μM) for 4 h, followed by stimulation with 1 μg·mL^−1 LPS for 24 h. Then, 50 μL of cell culture medium was mixed with 100 μL of Griess reagent I and II and incubated at room temperature for 10 min with horizontal shaking, after which the absorbance at 540 nm was measured in a microplate reader. Indomethacin was used as a positive control and was purchased from Sigma-Aldrich (St. Louis, MI, USA) Co. Wells with DMSO were used as a negative control (final DMSO concentration was 0.1%). The NO production inhibition rate was calculated using the flowing formula: NO production inhibition rate (%) =LPS group−Compound group/LPS group−DMSO group×100
IC50 is the concentration of the compound that inhibits 50% of NO production relative to the LPS group. All assays were performed in triplicate. The inhibition rates were calculated and plotted versus test concentrations to afford the IC50 (±SD) for three independent tests. Data were analyzed using SPSS 26.0 software. p < 0.05 was considered statistically significant.
(Griess reagent forms a coloured azo dye with nitrite.)

[9] abbreviates: RAW 264.7 cells, MTT, 72 h, without LPS stimulation, read-out: Cytotoxicity (CC50).
Where [10] appears, read: ATCC12598, tested range 0.78–100 μg/mL, 24 h at 27 °C, means of three parallel experiments.
Setting [11] is: Mus musculus, RAW264.7, RAW 264.7 cells.

Take `Cc1cc2ccc3c(c2cn1)O[C@@](O)(C(C)C)C3=O` [Compound 3, TMC-120 C]: the CC50 at 72 h in data set [1] (setting [9]) was above 50 µM.

As to `COC(=O)Nc1nc2ccccc2[nH]1` [Carbendazim, reference compound], the figures for the MIC in data set [2], in data set [3] and in data set [4] were 0.78 µg/mL (≈ 4.08 µM), 1.56 µg/mL (≈ 8.16 µM) and 0.78 µg/mL (≈ 4.08 µM), respectively.

On to `Cc1cc2ccc3c(c2cn1)OC(C(C)(C)O)C3` (centres unmarked) [Compound 2], for which the MIC in data set [2] was 25 µg/mL (≈ 103 µM); in data set [5], 50 µg/mL (≈ 206 µM); in data set [3] it was 50 µg/mL (≈ 206 µM); in data set [4] it was 50 µg/mL (≈ 206 µM); in data set [6], 50 µg/mL (≈ 206 µM); in data set [7] (setting [10]), 25 µg/mL (≈ 103 µM). Besides, the IC50 in data set [8] (setting [11]) amounted to 31.5 ± 2.3 µM. Also, the CC50 at 72 h in data set [1] (setting [9]) is above 50 µM.

For `CC(C)C1(O)Oc2c(ccc(CO)c2CO)C1=O` (centres unmarked) [Compound 6], the MIC in data set [2] is 12.5 to 25 µg/mL (≈ 49.6 to 99.1 µM); in data set [5] it was 100 µg/mL (≈ 396 µM); in data set [3] it was 50 µg/mL (≈ 198 µM); in data set [4] it was 12.5 µg/mL (≈ 49.6 µM); in data set [6] it was 50 µg/mL (≈ 198 µM); in data set [7] (setting [10]), 50 µg/mL (≈ 198 µM). Also, the “minimum inhibitory concentration (MIC)” value in data set [2] stood at 12.5 µg/mL (≈ 49.6 µM).

For `CC(C)=C1Oc2c(ccc3cc(C)ncc23)C1=O` [Compound 4, TMC-120 B], the CC50 at 72 h in data set [1] (setting [9]) is above 50 µM.

For the compound `Cc1cc2ccc3cc(C(C)(C)O)oc3c2cn1` [Compound 1], the MIC turned out to be 50 µg/mL (≈ 207 µM) in data set [2]; 25 µg/mL (≈ 104 µM) in data set [5]; 50 µg/mL (≈ 207 µM) in data set [3]; 50 µg/mL (≈ 207 µM) in data set [4]; 12.5 µg/mL (≈ 51.8 µM) in data set [6]; 12.5 µg/mL (≈ 51.8 µM) in data set [7] (ATCC12598, 24 h). In addition, the IC50 was 17.3 µM in data set [8] (setting [11]) and 17.3 ± 1.6 µM in data set [8] (RAW 264.7 cells). Moreover, in data set [1] (setting [9]), the CC50 at 72 h was above 50 µM.

With `CC(C)(O)C1Cc2ccc(C=CC(=O)O)c(CO)c2O1` (centres unmarked) [Compound 5], the MIC in data set [2] was 12.5 to 25 µg/mL (≈ 44.9 to 89.8 µM); in data set [5], 50 µg/mL (≈ 180 µM); in data set [3], 50 µg/mL (≈ 180 µM); in data set [4] it was 12.5 µg/mL (≈ 44.9 µM); in data set [6], 50 µg/mL (≈ 180 µM); in data set [7] (setting [10]), 50 µg/mL (≈ 180 µM). The “minimum inhibitory concentration (MIC)” value in data set [2] worked out at 25 µg/mL (≈ 89.8 µM).

Regarding `Cc1ccc(-c2cc(C(F)(F)F)nn2-c2ccc(S(N)(=O)=O)cc2)cc1` [Celecoxib, reference compound], in data set [8] (setting [11]), the IC50 was found to be 32.1 ± 1.7 µM. In data set [1], the CC50 at 72 h is above 50 µM.

For the compound `O=C(O)c1cn(C2CC2)c2cc(N3CCNCC3)c(F)cc2c1=O` [Ciprofloxacin, reference compound], the MIC amounted to 0.8 µg/mL (≈ 2.41 µM) in data set [5], 0.2 µg/mL (≈ 0.604 µM) in data set [6] and 0.1 µg/mL (≈ 0.302 µM) in data set [7] (setting [10]).
